From US20030215516A1, “Process for production of crystals of a medicinally effective ingredient, crystals obtained thereby and pharmaceutical preparations containing them” (priority 2002, published 2003)
Where two headings read alike, the source gives them in different places. Marks after values point to notes of the source that are not given here.

Key:
[1] = Active ingredient release from 1 mg capsule / 1 mg tablet; assay type: physicochemical; settings: 0.3% SDS in water
Procedure: The release values were compared in a test medium, which comprises 0.3% SDS in water, with paddle stirring, 100 rpm.
Active Ingredient Release:
Active ingredient release measured in 1000 mL water with 0.3% sodium dodecyl sulfate, 100 rpm
Content Determination by HPLC with external calibration
(§1) Column: LiChrosphere 5μ RP-18 encapped, 150×3 mm
(§2) Eluent: acetonitrile/water=45/55

[2] = Particle size distribution (Sympatec HELOS, dry dispersion); assay type: physicochemical
Text: Particle Size Distribution:
Sympatec HELOS (H0445), dry dispersion system (RODOS), pressure 2 bar

[3] = Description: Content Determination according to USP/Ph. Eur. for individual capsules after elution through HPLC with external calibration
as §1, §2

[4] = Example 1, spray-dried microcrystals
[5] = Example 2, primary particle size
[6] = Example 3, primary particle size
[7] = after drying on filter (from ethyl acetate suspension)
[8] = after spray-drying (from ethanol/water suspension)
[9] = suspension in ethanol/water (90/10) with 10% by weight microcrystalline J956, before drying
[10] = suspension in ethyl acetate with 14% by weight microcrystalline J956, before drying
[11] = 1 mg capsule, microcrystals X50 3.4/X100 25 μm
[12] = 1 mg capsule, microcrystals X50 5.2/X100 30 μm
[13] = 1 mg capsule, microcrystals X50 6.6/X100 43 μm
[14] = 1 mg capsule, microcrystals X50 8.7/X100 43 μm
[15] = 1 mg capsule, microcrystals X50 14.1/X100 87 μm
[16] = 1 mg tablet, microcrystals X50 10.6/X100 73 μm
[17] = Example 4, primary particle size
[18] = Example 6, primary particle size
[19] = Example 7, primary particle size

## CCNC(=O)ON=Cc1ccc(C2CC3(C)C(CCC3(COC)OC)C3CCC4=CC(=O)CCC4=C23)cc1 (stereo not drawn) [J956, 11β-{4-[(ethylaminocarbonyl)oximinomethyl]phenyl}-17β-methoxy-17α-methoxymethyl-estra-4,9-dien-3-one]
[1]; 1 mg capsule, microcrystals X50 3.4/X100 25 μm, 0 min, paddle 100 rpm
  RELEASE in %: 0%
[1]; 1 mg capsule, microcrystals X50 3.4/X100 25 μm, 10 min, paddle 100 rpm
  RELEASE in %: 90.7%
[1]; 1 mg capsule, microcrystals X50 3.4/X100 25 μm, 20 min, paddle 100 rpm
  RELEASE in %: 97.3%
[1]; 1 mg capsule, microcrystals X50 3.4/X100 25 μm, 30 min, paddle 100 rpm
  RELEASE in %: 98.1%
[1]; 1 mg capsule, microcrystals X50 3.4/X100 25 μm, 45 min, paddle 100 rpm
  RELEASE in %: 99.9%
[1]; 1 mg capsule, microcrystals X50 5.2/X100 30 μm, 0 min, paddle 100 rpm
  RELEASE in %: 0%
[1]; 1 mg capsule, microcrystals X50 5.2/X100 30 μm, 10 min, paddle 100 rpm
  RELEASE in %: 89.8%
[1]; 1 mg capsule, microcrystals X50 5.2/X100 30 μm, 20 min, paddle 100 rpm
  RELEASE in %: 93.5%
[1]; 1 mg capsule, microcrystals X50 5.2/X100 30 μm, 30 min, paddle 100 rpm
  RELEASE in %: 93.4%
[1]; 1 mg capsule, microcrystals X50 5.2/X100 30 μm, 45 min, paddle 100 rpm
  RELEASE in %: 95.6%
[1]; 1 mg capsule, microcrystals X50 6.6/X100 43 μm, 0 min, paddle 100 rpm
  RELEASE in %: 0%
[1]; 1 mg capsule, microcrystals X50 6.6/X100 43 μm, 10 min, paddle 100 rpm
  RELEASE in %: 93.2%
[1]; 1 mg capsule, microcrystals X50 6.6/X100 43 μm, 20 min, paddle 100 rpm
  RELEASE in %: 95.9%
[1]; 1 mg capsule, microcrystals X50 6.6/X100 43 μm, 30 min, paddle 100 rpm
  RELEASE in %: 96.7%
[1]; 1 mg capsule, microcrystals X50 6.6/X100 43 μm, 45 min, paddle 100 rpm
  RELEASE in %: 96.8%
[1]; 1 mg capsule, microcrystals X50 8.7/X100 43 μm, 0 min, paddle 100 rpm
  RELEASE in %: 0%
[1]; 1 mg capsule, microcrystals X50 8.7/X100 43 μm, 10 min, paddle 100 rpm
  RELEASE in %: 93.5%
[1]; 1 mg capsule, microcrystals X50 8.7/X100 43 μm, 20 min, paddle 100 rpm
  RELEASE in %: 96.7%
[1]; 1 mg capsule, microcrystals X50 8.7/X100 43 μm, 30 min, paddle 100 rpm
  RELEASE in %: 98.5%
[1]; 1 mg capsule, microcrystals X50 8.7/X100 43 μm, 45 min, paddle 100 rpm
  RELEASE in %: 99.7%
[1]; 1 mg capsule, microcrystals X50 14.1/X100 87 μm, 0 min, paddle 100 rpm
  RELEASE in %: 0%
[1]; 1 mg capsule, microcrystals X50 14.1/X100 87 μm, 10 min, paddle 100 rpm
  RELEASE in %: 90.2%
[1]; 1 mg capsule, microcrystals X50 14.1/X100 87 μm, 20 min, paddle 100 rpm
  RELEASE in %: 95.3%
[1]; 1 mg capsule, microcrystals X50 14.1/X100 87 μm, 30 min, paddle 100 rpm
  RELEASE in %: 96.0%
[1]; 1 mg capsule, microcrystals X50 14.1/X100 87 μm, 45 min, paddle 100 rpm
  RELEASE in %: 96.3%
[1]; 1 mg tablet, microcrystals X50 10.6/X100 73 μm, 0 min, paddle, 100 rpm
  RELEASE in %: 0%
[1]; 1 mg tablet, microcrystals X50 10.6/X100 73 μm, 10 min, paddle, 100 rpm
  RELEASE in %: 73.7%
[1]; 1 mg tablet, microcrystals X50 10.6/X100 73 μm, 20 min, paddle, 100 rpm
  RELEASE in %: 90.3%
[1]; 1 mg tablet, microcrystals X50 10.6/X100 73 μm, 30 min, paddle, 100 rpm
  RELEASE in %: 91.85%
[1]; 1 mg tablet, microcrystals X50 10.6/X100 73 μm, 45 min, paddle, 100 rpm
  RELEASE in %: 96.6%
[2]; [4]
  Particle size X10: 1.75 μm
  Particle size X50: 6.04 μm
  Particle size X100: 36 μm
[2]; Example 2, final
  Particle size X10: 4 μm
  Particle size X50: 13 μm
  Particle size X100: 73 μm
[2]; [5]
  Particle size X10: 3 μm
  Particle size X50: 9 μm
  Particle size X100: 61 μm
[2]; Example 3, final
  Particle size X10: 1.4 μm
  Particle size X50: 5.4 μm
  Particle size X100: 30 μm
[2]; [6]
  Particle size X10: 1.2 μm
  Particle size X50: 3.4 μm
  Particle size X100: 30 μm
[2]; after dissolution and re-crystallization of 40 percent of the precipitate from 20 percent by weight ethyl acetate solution
  average particle diameter (×50): 7.8 μm
[2]; [7]
  Particle diameter X10: 2.7 μm
  Particle diameter X50: 10.61 μm
  Particle diameter X90: 24 μm
  Particle diameter X100: 73 μm
[2]; [8]
  Particle diameter X10: 2.25 μm
  Particle diameter X50: 8.03 μm
  Particle diameter X90: 17 μm
  Particle diameter X100: 43 μm
[2]; during dissolution and re-crystallization of 40 percent of the precipitate from 20 percent by weight ethyl acetate solution
  increase of the maximum particle size (×100): scarcely measurable
[2]; precipitated from a 20 percent by weight ethyl acetate solution, before dissolution and re-crystallization
  average particle diameter (×50): 4.9 μm
[2]; [9]
  Particle diameter X10: 2.11 μm
  Particle diameter X50: 8.6 μm
  Particle diameter X90: 19 μm
  Particle diameter X100: 51 μm
[2]; [10]
  Particle diameter X10: 2.62*** μm
  Particle diameter X50: 10.4 μm
  Particle diameter X90: 24 μm
  Particle diameter X100: 73 μm
[3]; [11]
  CUT value spread: Confidence Interval %: 2.23%
  CUT value spread: RSD, %: 3.56%
[3]; [12]
  CUT value spread: Confidence Interval %: 1.20%
  CUT value spread: RSD, %: 2.08%
[3]; [13]
  CUT value spread: Confidence Interval %: 1.08%
  CUT value spread: RSD, %: 1.57%
[3]; [14]
  CUT value spread: Confidence Interval %: 0.93%
  CUT value spread: RSD, %: 1.38%
[3]; [15]
  CUT value spread: Confidence Interval %: 1.77%
  CUT value spread: RSD, %: 2.50%
[3]; [16]
  CUT value spread: Confidence Interval %: 1.16%
  CUT value spread: RSD, %: 1.70%

## CCNC(=O)ON=Cc1ccc(C2CC3(C)C(CCC3(COC)OC)C3CCC4=CC(=O)CCC4=C23)cc1 (stereo not drawn) [Micronizate, 11β-{4-[(ethylaminocarbonyl)oximinomethyl]phenyl}-17β-methoxy-17α-methoxymethyl-estra-4,9-dien-3-one, reference compound]
[1]; 1 mg capsule, micronized J956, 0 min, paddle 100 rpm
  RELEASE in %: 0%
[1]; 1 mg capsule, micronized J956, 10 min, paddle 100 rpm
  RELEASE in %: 92.1%
[1]; 1 mg capsule, micronized J956, 20 min, paddle 100 rpm
  RELEASE in %: 94.3%
[1]; 1 mg capsule, micronized J956, 30 min, paddle 100 rpm
  RELEASE in %: 94.6%
[1]; 1 mg capsule, micronized J956, 45 min, paddle 100 rpm
  RELEASE in %: 94.9%
[1]; 1 mg tablet, micronized J956, 0 min, paddle, 100 rpm
  RELEASE in %: 0%
[1]; 1 mg tablet, micronized J956, 10 min, paddle, 100 rpm
  RELEASE in %: 92.1%
[1]; 1 mg tablet, micronized J956, 20 min, paddle, 100 rpm
  RELEASE in %: 94.3%
[1]; 1 mg tablet, micronized J956, 30 min, paddle, 100 rpm
  RELEASE in %: 94.6%
[1]; 1 mg tablet, micronized J956, 45 min, paddle, 100 rpm
  RELEASE in %: 94.9%
[3]; 1 mg capsule, micronized J956
  CUT value spread: Confidence Interval %: 1.72%
  CUT value spread: RSD, %: 2.56%
[3]; 1 mg tablet, micronized J956
  CUT value spread: Confidence Interval %: 1.72%
  CUT value spread: RSD, %: 2.56%

## CCCCCCCCCCC(=O)O[C@H]1CC[C@H]2[C@@H]3CCC4=CC(=O)CC[C@]4(C)[C@H]3CC[C@]12C [testosterone undecanoate, reference compound]
[2]; Example 4, 1st cycle
  Particle size X10: 17 μm
  Particle size X50: 41 μm
  Particle size X99: 100 μm
  Particle size X100: 120 μm
[2]; [17]
  Particle size X10: 6 μm
  Particle size X50: 21 μm
  Particle size X99: 100 μm
  Particle size X100: 120 μm

## C#C[C@]1(OC(C)=O)CC[C@H]2[C@@H]3CCC4=CC(=O)CC[C@@H]4[C@H]3CC[C@@]21C [norethisterone acetate, reference compound]
[2]; Example 6, end
  Particle size X10: 8.5 μm
  Particle size X50: 30.4 μm
  Particle size X99: 87 μm
  Particle size X100: 100 μm
[2]; [18]
  Particle size X10: 4 μm
  Particle size X50: 14 μm
  Particle size X99: 55 μm
  Particle size X100: 87 μm

## C[C@]1(O)CC[C@H]2[C@@H]3CCC4=CC(=O)CC[C@@H]4[C@H]3CC[C@@]21C [methylnortestosterone, reference compound]
[2]; [19]
  Particle size X10: 1.32 μm
  Particle size X50: 3.96 μm
  Particle size X99: 14 μm
  Particle size X100: 18 μm
[2]; Example 7, spray-dried
  Particle size X10: 1.36 μm
  Particle size X50: 3.94 μm
  Particle size X99: 14 μm
  Particle size X100: 18 μm
